Reference: patent US20080200403A1, “9A-Carbamoyl and Thiocarbamoyl Azalides with Anti-Inflammatory Activity” (GLAXOSMITHKLINE, priority 2005, published 2008)
Where two headings read alike, the source gives them in different places.

What was measured:
[1] = tested on: granulocytes; test: Accumulation in granulocytes (LC-MS); format: in vitro ADME; conditions: 180 min
Protocol: (§1) Granulocytes were obtained from heparinized whole blood using density gradient centrifugation. Erythrocytes were sedimented on 3% dextran T-500 (Amersham Pharmacia Biotech AB, Uppsala, Sweden). Leukocytes were centrifuged on Ficoll (Amersham Pharmacia Biotech AB, Uppsala, Sweden) for 35 min at 600 g at 20° C. The pellet of granulocytes was cleared from remaining erythrocytes by a brief hypotonic lysis.
7.5×10^6 granulocytes, isolated as described above, were suspended in 3 mL of RPMI 1640 (Institute of Immunology, Croatia) containing 10 μM of tested macrolide. Samples were incubated at 37° C. for 180 min. Following incubation, the samples were centrifuged through the layer of Poly(dimethylsiloxane-co-diphenylsiloxane), dihydroxy terminated—silicone oil (Aldrich Chemical Company, Milwaukee, USA). The pellet was resuspended in 0.5% Triton X-100 (Sigma, St. Louis, USA) in deionized water (MilliQ, Millipore Corporation, Bedford, USA). The suspension was sonicated, proteins were precipitated with acetonitrile, and the concentration of macrolide in the supernatants was determined by liquid chromatography-mass spectrometry (LC-MS).
Intracellular concentrations of the test compounds were calculated from the mean cell number recovered after centrifuging through silicone oil. According to the literature, about 1 million neutrophils is considered to have a volume of 0.24 μL (Vazifeh et al., Antimicrob Agents Chemo. 1997; 41: 2099-2107). To estimate the extent of macrolide accumulation, the intracellular to extracellular concentration ratio (I/E) was calculated, where E (due to a large volume of incubation medium) was taken as constant (10 μM). Results are expressed relative to azithromycin according to the following equation: % of azithromycin uptake=(I/E of a substance/I/E of azithromycin)×100. I/E values obtained for azithromycin were 164±10.

[2] = tested on: granulocytes; test: Inhibition of degranulation of granulocytes (elastase release); format: cell-based, human; conditions: for inhibition at 50 µM: Homo sapiens, read-out: Percentage of inhibition of degranulation of granulocytes
Protocol: as §1
1×10^6 granulocytes, isolated as described above, were resuspended in RPMI-1640 medium (Institute of Immunology, Croatia), and were incubated with 10 or 50 μM of test compound together with cytochalasine B (5 μg/mL) for 2 h at 37° C. Degranulation then was induced by the addition of 0.1 μM fMLP (Sigma, USA) or 0.5 μM A23187 (Calbiochem, USA). The activity of free neutrophil elastase was determined with a chromogenic substrate specific for human neutrophil elastase, such as n-methoxysuccinyl-1-alanyl-1-alanyl-1-prolyl-lvalyl-p-niytoanlide (Sigma Chemical Company, St Louis, Mo., USA) Elastase activity, as a marker of primary granules, was assessed in supernatant using a spectrophotometer at an absorbance of 405 nm. Results are expressed as the percent of inhibition of degranulation in unstimulated cells, and in stimulated cells treated with fMLP or A23187.

[3] = tested on: IL-5; test: Inhibition of IL-5 production by stimulated human PBMC in vitro; format: cell-based; conditions: PHA stimulated, 3 days
Protocol: Heparinized peripheral blood was obtained from healthy donors, and peripheral blood mononuclear cells (PBMC) were isolated by Histopaque 1077 (Sigma, USA) density centrifugation on 400 g for 30 minutes. Collected PBMC were centrifuged in plasma on 400 g/10 min, resuspended and washed in RPMI 1640 (Institute of Immunology, Croatia) by centrifugation.
Peripheral blood mononuclear cells (PBMC), isolated as described above, were seeded in a 48-well plate at a concentration of 1×10^6 cells per well in the RPMI culture medium described above. Cells were stimulated with 10 μg/mL phytohaemagglutinin (PHA) (Sigma, USA) and incubated at 37° C., 5% CO2 in 90% humidity with tested compounds (10 and 50 μM) for 3 days. Cytokine concentrations were determined in supernatants by sandwich ELISA, using capture and detection antibodies (R&D, USA) according to the manufacturer's recommendations.
Inhibition (as percentage) was calculated using the following formula: % inhibition=(1−concentration of cytokines in sample/concentration of cytokines in positive control)×100. The positive control refers to stimulated samples, not treated with substances.

[4] = A23187 0.5 μM stimulated, compound 50 μM
[5] = fMLP 0.1 μM stimulated, compound 50 μM
[6] = A23187 0.5 μM stimulated, compound 10 μM
[7] = fMLP 0.1 μM stimulated, compound 10 μM

Row | Structure (SMILES) | % of azithromycin uptake ([1]; 10 μM) | intracellular to extracellular concentration ratio (I/E) ([1]; 10 μM) | inhibition at 50 µM [2, 4] | inhibition at 50 µM [2, 5] | Percentage of inhibition of IL-5 production ([3]; compound 10 μM) | Percentage of inhibition of IL-5 production ([3]; compound 50 μM) | % of azithromycin uptake ([1]; granulocytes, 10 μM macrolide, 37° C., (I/E of substance/I/E of azithromycin)×100) | Percentage of inhibition of degranulation of granulocytes [2, 6] | Percentage of inhibition of degranulation of granulocytes [2, 4] | Percentage of inhibition of degranulation of granulocytes [2, 7] | Percentage of inhibition of degranulation of granulocytes [2, 5] | inhibition at 10 µM ([3]; Homo sapiens, 72 h, compound 10 μM, read-out: Percentage of inhibition of IL-5 production) | inhibition at 50 µM ([3]; Homo sapiens, 72 h, compound 50 μM, read-out: Percentage of inhibition of IL-5 production)
1 | CC[C@H]1OC(=O)[C@H](C)[C@@H](O[C@H]2C[C@@](C)(OC)[C@@H](O)[C@H](C)O2)[C@H](C)[C@@H](O[C@@H]2O[C@H](C)C[C@H](N(C)C)[C@H]2O)[C@](C)(O)C[C@@H](C)CN(C)[C@H](C)[C@@H](O)[C@]1(C)O [Azithromycin, azithromycin, reference compound] | 100% | 164±10 | 16% | 36% |  |  |  |  |  |  |  |  | 
2 | CCC1OC(=O)C(C)C(OC2CC(C)(OC)C(O)C(C)O2)C(C)C(OC2OC(C)CC(N(C)C)C2O)C(C)(O)CC(C)CN(C(=S)Nc2cccc(F)c2)C(C)C(O)C1(C)O (stereo not shown) [Compound 3] |  |  |  |  | 80% | 78% | 93% | 2% | 75% | 25% | 33% |  | 
3 | CCC1OC(=O)C(C)C(O)C(C)C(OC2OC(C)CC(N(C)C)C2O)C(C)(O)CC(C)CN(C(=S)NCc2ccccc2)C(C)C(O)C1(C)O (stereo not shown) [Compound 1] |  |  |  |  | 14% | 73% |  | 20% | 27% | 37% | 72% |  | 
4 | CC[C@H]1OC(=O)[C@H](C)[C@@H](O[C@H]2C[C@@](C)(OC)[C@@H](O)[C@H](C)O2)[C@H](C)[C@@H](O[C@@H]2O[C@H](C)C[C@H](N(C)C)[C@H]2O)[C@](C)(OC)C[C@@H](C)C(=O)[C@H](C)[C@@H](O)[C@]1(C)O [Clarithromycin, clarithromycin, reference compound] |  |  |  |  |  |  |  |  |  |  |  | 13% | 47%
